# From patent publication US20210283107A1, “Methods to Expand the Spectrum of Gram-Positive Antibiotics” (NORTH CAROLINA STATE UNIVERSITY, priority 2016, published 2021)
# “And” between values parts separate entries of the source, which are not always exact repeats. Equal entries are not always repeated.
# How the values were obtained:
# [1] = test system: A. baumannii strain 5075 (AB5075); experiment: Macrolide sensitization / antibiotic resensitization: antibiotic MIC in presence of compound (broth microdilution); format: cell-based, Acinetobacter baumannii; conditions: AB5075; for MIC: Acinetobacter baumannii, antibiotic alone, no compound (control row), read-out: MIC (μg/mL) of the antibiotic
# Protocol: A. baumannii 5075 was plated on LB agar, then grown in CAMHB for 6-8 h and this culture was used to inoculate fresh CAMHB (5×10^5 CFU/mL). The resulting suspension was aliquoted (5 mL) into culture tubes and compound, from 100 mM DMSO stock, was added. One aliquot was not treated (control). 1 mL of each sample was transferred to a new culture tube and antibiotic was added. Rows 2-12 of a 96-well microtiter plate were filled with 100 μL/well from the remaining 4 mL bacterial subcultures, allowing the concentration of compound to be kept uniform throughout the antibiotic dilution procedure. Samples containing antibiotic were aliquoted (200 μL) into the corresponding first row wells of the microtiter plate. Row 1 wells were mixed 6 to 8 times then 100 μL was withdrawn and transferred to row 2. Row 2 wells were mixed 6 to 8 times, followed by a 100 μL transfer from row 2 to row 3. This procedure was repeated to serially dilute the rest of the rows of the microtiter plate, with the exception of the final row, to which no antibiotic was added (to check for growth of bacteria in the presence of compound alone). The microtiter plate was then covered, placed in a covered damp plastic container and incubated under stationary conditions at 37° C. After 16-18 hrs minimum inhibitory concentration (MIC) values were recorded as the lowest concentration of antibiotic at which there was no visible growth of bacteria. Experiments were carried out in duplicate each time and repeated at least twice.
# The difference in antibiotic MIC between the control (no compound) sample, and the samples containing each compound was recorded as the fold-reduction.
# Day Cultures (6 h) were subcultured to 5×10^5 CFU/mL in cation adjusted Mueller-Hinton broth (CAMHB). […] One milliliter of the resulting solution was aliquoted into a separate culture tube and was dosed with antibiotic so that the resulting concentration was the highest desirable concentration to be tested. Bacteria treated with antibiotic alone were used as a control. Row one of a 96-well plate was filled with 200 μL of the antibiotic/compound solution, and the remaining rows were filled with 100 μL of the remaining 4 mL bacterial subculture. The wells in row one were mixed five times before 100 μL was transferred to the following row (row two). Row two was then mixed five times, and 100 μL was transferred to row three. This process was repeated until the second to last row had been reached. The last row is left unexposed to antibiotic in order to serve as a negative control. The antibiotic only treated bacteria was plated by aliquoting 200 μL of the treated bacteria into row one and filling the remaining rows with untreated bacteria from the original bacteria subculture. The rows were mixed in the same way as described above. Plates were covered with Glad Press n'Seal and were incubated under stationary conditions at 37° C. for 16 hours. MIC values were recorded as the lowest concentration at which no bacterial growth was observed. Fold reductions were determined by comparison of the compound treated wells with the antibiotic only treated control wells.
# [2] = test system: A. baumannii mutant AB522; experiment: MIC against Tn-seq transposon mutant AB522; format: cell-based; conditions: Acinetobacter baumannii
# Protocol: (§1) During individual MIC screening, two mutants, AB522 and AB1310, were identified due to their increased sensitivity to the three macrolide antibiotics and vancomycin when compared to AB 5075 (Table 17).
# (§2) Day Cultures (6 h) were subcultured to 5×10^5 CFU/mL in cation adjusted Mueller-Hinton broth (CAMHB). Aliquots (1 mL) were placed in culture tubes, and compound was added from 100 mM stock solutions, such that the compound concentration equaled the highest concentration tested (200 μM or 64 μg/mL). Samples were then aliquoted (200 μL) into the first row of wells of a 96-well plate, with all remaining wells being filled with 100 μL of initial bacterial subculture. The wells in row one were mixed five times before 100 μL was transferred to the following row (row two). Row two was then mixed five times, and 100 μL was transferred to row three. This processed was repeated until the final row had been mixed. This process provided a serial dilution of the compound. Plates were covered with Glad Press n'Seal and were incubated under stationary conditions at 37° C. for 16 hours. MIC values were recorded as the lowest concentration at which no bacterial growth was observed.
# [3] = test system: A. baumannii mutant AB1310; experiment: MIC against Tn-seq transposon mutant AB1310; format: cell-based; conditions: Acinetobacter baumannii
# Protocol: as §1, §2
# AB5075 = experiment: H33342 accumulation assay (efflux); format: cell-based, Acinetobacter baumannii; conditions: for H33342 accumulation, fluorescence at 355 and 460 nm: 25 μM CCCP, immediately following exposure
# Protocol: In addition to the evaluation of the relationship between compounds 1 and 4 and colistin, the impact of compound 1 on efflux was evaluated using AB5075 and a bisBenzimide H33342 trihydrochloride (H33342) accumulation assay. Using a procedure adapted from Coldham et al. (A 96-well plate fluorescence assay for assessment of cellular permeability and active efflux in Salmonella enterica serovar Typhimurium and Escherichia coli. J Antimicrob Chemother, 2010. 65(8): p. 1655-63) and Richmond et al. (Efflux in Acinetobacter baumannii can be determined by measuring accumulation of H33342 (bis-benzamide). J Antimicrob Chemother, 2013. 68(7): p. 1594-600), the effect of no treatment, a known inhibitor carbonyl cyanide-m-chlorophenyl hydrazone (CCCP), and compound 1 on efflux was analyzed over 30 minutes and in two different treatment variations. Fluorescence was read using excitation and emission filters of 355 and 460 nm, and the values were processed in excel. The first analysis was performed immediately after treating the bacteria with compound 1 at both 10 and 30 μM and CCCP at 25 μM.
# The second analysis was performed after exposing the bacteria to compound 1 at 30 μM for 5-hours shaking at 37° C.
# [4] = test system: A. baumannii strain 5075 (AB5075); experiment: Broth microdilution MIC determination of compound alone; format: cell-based; conditions: Acinetobacter baumannii; compound alone; AB5075; read-out: MIC
# Protocol: Our initial screening began by testing a diverse selection of 2-AI compounds from our internal library for their minimal inhibitory concentrations (MIC) against A. baumannii isolate 5075.
# as §2
# AB 5075 = experiment: Backlight assay for membrane permeability; format: cell-based, Acinetobacter baumannii; conditions: AB5075
# Protocol: The assay was initially performed at 10, 20 and 30 μM with compounds 1 and 4 (Table 16). […] When the concentration is lowered to 20 μM, the percent of membrane disrupted also decreases to 78% and 83% respectively. When further decreasing the concentration to 10 μM, the membrane disruption decreases to 39 and 44% respectively. Due to the similar structure and lack of potentiation activity, compound 25 was screened at 10, 20 and 30 μM to compare membrane permeability with that of active compounds. The percent disruption was less than seen with compounds 1 and 4 being 53, 54 and 60% respectively.
# [5] = compound at 30 μM vs antibiotic alone
# [6] = compound at 60 μM vs antibiotic alone
compound,measurement,setting,value
"CC[C@H]1OC(=O)[C@H](C)[C@@H](O[C@H]2C[C@@](C)(OC)[C@@H](O)[C@H](C)O2)[C@H](C)[C@@H](O[C@@H]2O[C@H](C)C[C@H](N(C)C)[C@H]2O)[C@](C)(O)C[C@@H](C)CN(C)[C@H](C)[C@@H](O)[C@]1(C)O [Azithromycin, azithromycin]",MIC,[1],64 µg/mL
same,MIC,[2],4 µg/mL
same,MIC,[3],4 µg/mL
CC[C@H]1OC(=O)[C@H](C)[C@@H](O[C@H]2C[C@@](C)(OC)[C@@H](O)[C@H](C)O2)[C@H](C)[C@@H](O[C@@H]2O[C@H](C)C[C@H](N(C)C)[C@H]2O)[C@](C)(O)C[C@@H](C)C(=O)[C@H](C)[C@@H](O)[C@]1(C)O [Erythromycin],MIC,[1],32 µg/mL
same,MIC,[2],2 µg/mL
same,MIC,[3],4 µg/mL
"N#CC(C#N)=NNc1cccc(Cl)c1 [CCCP, carbonyl cyanide-m-chlorophenyl hydrazone, reference compound]","H33342 accumulation, fluorescence at 355 and 460 nm",AB5075; time 0 minutes,"42,713.8 ± 10,482.1"
same,"H33342 accumulation, fluorescence at 355 and 460 nm",AB5075; time 10 minutes,"50,618.3 ± 9,944.3"
same,"H33342 accumulation, fluorescence at 355 and 460 nm",AB5075; time 20 minutes,"50,928.8 ± 6,944.8"
same,"H33342 accumulation, fluorescence at 355 and 460 nm",AB5075; time 30 minutes,"48,907.2 ± 4,873"
same,change in H33342 fluorescence over 30 minutes,"AB5075; immediately after treating, compound 1 at both 10 and 30 μM, CCCP at 25 μM",a notable increase in fluorescence
CCCCCCCCCCCNC(=O)CCCc1c[nH]c(C)n1.Cl [Compound 5],MIC,[4],100 µM
same,Fold reduction (azithromycin MIC),[1]; [5],8 fold
same,Fold reduction (clarithromycin MIC),[1]; [5],256 fold
same,Fold reduction (erythromycin MIC),[1]; [5],16 fold
same,Azithromycin MIC,[1]; in presence of compound at 30 μM,8 µg/mL
Nc1nc(-c2ccc(NC(=O)c3ccc(Cl)cc3)cc2)c[nH]1 [Compound 16],MIC,[4],> 200 µM
same,Fold reduction (erythromycin MIC),[1]; [6],4 fold
CCCCCCCCCCn1c(CCCCCC)cnc1N.Cl [Compound 12],MIC,[4],100 µM
same,Fold reduction (erythromycin MIC),[1]; [6],4 fold
Nc1nc(-c2ccc(NC(=O)c3ccc(I)cc3)cc2)c[nH]1 [Compound 25],MIC,[4],> 200 µM
same,Disrupted bacterial membrane (%),AB 5075; compound at 10 μM,53% and 53.7%
same,Disrupted bacterial membrane (%),AB 5075; compound at 20 μM,54%
same,Disrupted bacterial membrane (%),AB 5075; compound at 30 μM,60%
Nc1nc(-c2ccc(NC(=O)c3cc(F)cc(F)c3)cc2)c[nH]1 [Compound 15],MIC,[4],200 µM
same,Fold reduction (erythromycin MIC),[1]; [6],8 fold
